The target in the test is T1, USP25 (USP25-His6) (Homo sapiens, UniProt Q9UHP3).
T1 construct: His6 (C); purchased Boston Biochem E-546
T1 sequence (Q9UHP3 1-1055): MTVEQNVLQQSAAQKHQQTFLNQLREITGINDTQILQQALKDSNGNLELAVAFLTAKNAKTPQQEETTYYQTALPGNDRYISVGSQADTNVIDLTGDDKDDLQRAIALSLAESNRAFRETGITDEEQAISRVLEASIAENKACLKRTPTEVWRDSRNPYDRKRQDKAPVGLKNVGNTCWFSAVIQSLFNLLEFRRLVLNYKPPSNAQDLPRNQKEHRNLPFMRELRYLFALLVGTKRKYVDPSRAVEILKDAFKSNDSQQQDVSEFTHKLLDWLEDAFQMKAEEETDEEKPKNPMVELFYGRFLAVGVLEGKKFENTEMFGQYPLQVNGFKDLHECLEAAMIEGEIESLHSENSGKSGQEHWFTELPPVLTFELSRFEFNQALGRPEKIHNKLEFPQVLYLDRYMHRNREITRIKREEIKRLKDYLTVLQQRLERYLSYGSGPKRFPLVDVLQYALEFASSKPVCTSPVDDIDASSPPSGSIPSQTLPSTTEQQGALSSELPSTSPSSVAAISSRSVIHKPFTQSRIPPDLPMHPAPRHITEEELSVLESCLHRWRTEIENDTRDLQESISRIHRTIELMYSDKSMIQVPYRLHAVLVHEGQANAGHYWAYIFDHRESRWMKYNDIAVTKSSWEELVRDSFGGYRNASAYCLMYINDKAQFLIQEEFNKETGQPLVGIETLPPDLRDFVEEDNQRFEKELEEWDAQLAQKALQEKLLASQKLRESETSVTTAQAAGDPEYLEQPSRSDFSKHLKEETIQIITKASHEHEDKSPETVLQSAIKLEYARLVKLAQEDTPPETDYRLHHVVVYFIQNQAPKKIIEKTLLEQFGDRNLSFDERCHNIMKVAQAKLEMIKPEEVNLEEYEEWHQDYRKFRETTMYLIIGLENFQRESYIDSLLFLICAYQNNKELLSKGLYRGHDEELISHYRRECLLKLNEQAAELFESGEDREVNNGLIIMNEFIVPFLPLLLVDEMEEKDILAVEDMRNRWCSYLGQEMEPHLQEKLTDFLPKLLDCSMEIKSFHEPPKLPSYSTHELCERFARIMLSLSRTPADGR
Description: Ubiquitin-Rhodamine 110 Assay for USP25 Activity, Example A-2. Type of test: biochemical. The following applies: USP25, 75 pM enzyme, 25 nM Ub-Rh110, 30 min preincubation; read-out: Assay A-2 (IC50 range). As to the method:
The assay was performed in a final volume of 9 μL in assay buffer containing 20 mM Tris-HCl (pH 8.0, (1M Tris-HCl, pH 8.0 solution; Corning 46-031-CM)), 3 mM BME (2-Mercaptoethanol; Sigma 63689-25ML-F), 0.03% BGG (0.22 μM filtered, Sigma, G7516-25G), and 0.01% Triton X-100 (Sigma, T9284-10L). Nanoliter quantities of 10-point, 3-fold serial dilution in DMSO was pre-dispensed into 1536 assay plates (Corning, #3724BC) for a final test concentration of 25 μM to 1.3 nM, top to lowest dose, respectively. Enzyme USP25, construct USP25-His6, (Boston Biochem E-546). Concentration and incubation times were optimized for the maximal signal-to-background while maintaining initial velocity conditions at a fixed substrate concentration. The final concentration of the enzyme in the assay was 75 pM. Final substrate (Ub-Rh110; Ubiquitin-Rhodamine 110, R&D Systems #U-555) concentration was 25 nM with [Ub-Rh110]<<Km. 3 μL of 2× enzyme was added to assay plates (pre-stamped with compound) preincubated with […] for 30 minutes and then 3 μL of 2×Ub-Rh110 was added to assay plates. Plates were incubated for 45 minutes at room temperature before addition of 3 μL of stop solution (final concentration of 10 mM citric acid (Sigma, 251275-500G)). Fluorescence was read on the Envision (Excitation at 485 nm and Emission at 535 nm; Perkin Elmer) or on the PheraSTAR (Excitation at 485 nm and Emission at 535 nm; BMG Labtech).
For assay formats Examples A-1a, A-1b, and A-2, data were reported as percent inhibition compared with control wells based on the following equation: % inh=1−((FLU−AveLow)/(AveHigh−AveLow)) where FLU=measured Fluorescence, AveLow=average Fluorescence of no enzyme control (n=16), and AveHigh=average Fluorescence of DMSO control (n=16). IC50 values were determined by curve fitting of the standard 4 parameter logistic fitting algorithm included in the Activity Base software package: IDBS XE Designer Model205. Data is fitted using the Levenburg Marquardt algorithm.
For the compound `O=C(NCCc1ccc(N2CCNCC2)cc1)c1cnc2[nH]ccc2c1` [Example 1-2, N-(4-(piperazin-1-yl)phenethyl)-1H-pyrrolo[2,3-b]pyridine-5-carboxamide], the half-maximal inhibitory concentration (IC50) lay in the range of 200 to 2000 nM.
For `Nc1c(C(=O)NCCc2ccc(N3CCNCC3)cc2)cnc2[nH]ccc12` [Example 1-5, 4-amino-N-(4-(piperazin-1-yl)phenethyl)-1H-pyrrolo[2,3-b]pyridine-5-carboxamide], the concentration for half-maximal inhibition (IC50) is 2000 to 10000 nM.
With `CCn1ccc2cc(C(=O)NCCc3ccc(N4CCNCC4)cc3)cnc21` [Example 1-4, 1-ethyl-N-(4-(piperazin-1-yl)phenethyl)-1H-pyrrolo[2,3-b]pyridine-5-carboxamide] the figure was 200 to 2000 nM; with `CCn1ccc2cc(C(=O)NCCc3cc(F)c(N4CC5CCC(C4)N5)cc3F)cnc21` [Example 1-1, N-[2-(4-[3,8-diazabicyclo[3.2.1]octan-3-yl]-2,5-difluorophenyl)ethyl]-1-ethyl-1H-pyrrolo[2,3-b]pyridine-5-carboxamide], 50 to 200 nM.
For the compound `CCn1ccc2cc(C(=O)NC[C@H](C)c3cc(F)c(N4CCNCC4)cc3F)cnc21` (single isomer, unassigned) [Example 2-2], the IC50 lay in the range of 2000 to 10000 nM.
With `O=C(NCCc1ccc(N2CCNCC2)cc1)c1cnc2[nH]cc(Cl)c2c1` [Example 3-2, 3-chloro-N-(4-(piperazin-1-yl)phenethyl)-1H-pyrrolo[2,3-b]pyridine-5-carboxamide] the figure was 2000 to 10000 nM; with `CC(C)(O)Cn1ccc2cc(C(=O)NCCc3cc(F)c(N4CC5CCC(C4)N5)cc3F)cnc21` [Example 1-9, N-(4-(3,8-diazabicyclo[3.2.1]octan-3-yl)-2,5-difluorophenethyl)-1-(2-hydroxy-2-methylpropyl)-1H-pyrrolo[2,3-b]pyridine-5-carboxamide], above 10000 nM; with `CCn1ccc2cc(C(=O)NC[C@@H](C)c3cc(F)c(N4CCNCC4)cc3F)cnc21` (single isomer, unassigned) [Example 2-1], 200 to 2000 nM.
To `CCn1cc(Cl)c2cc(C(=O)NCCc3ccc(N4CCNCC4)cc3)cnc21` [Example 3-1, 3-Chloro-1-ethyl-N-[2-[4-(piperazin-1-yl)phenyl]ethyl]-1H-pyrrolo[2,3-b]pyridine-5-carboxamide] belongs 50 to 200 nM; to `CCn1ccc2cc(C(=O)NCCc3ccc(N4CC5CCC(C4)N5)cc3)cnc21` [Example 1-6, N-(4-(3,8-diazabicyclo[3.2.1]octan-3-yl)phenethyl)-1-ethyl-1H-pyrrolo[2,3-b]pyridine-5-carboxamide], 50 to 200 nM.
As to `CCn1ccc2cc(C(=O)NCCc3ccc(N4CC5CCC(C4)N5)c(F)c3)cnc21` [Example 1-10, N-(4-(3,8-diazabicyclo[3.2.1]octan-3-yl)-3-fluorophenethyl)-1-ethyl-1H-pyrrolo[2,3-b]pyridine-5-carboxamide], the IC50 lay within 200 to 2000 nM.
To `CCn1ccc2cc(C(=O)NCCc3cc(F)c(N4CCNCC4)cc3F)cnc21` [Example 1-7, N-(2,5-difluoro-4-(piperazin-1-yl)phenethyl)-1-ethyl-1H-pyrrolo[2,3-b]pyridine-5-carboxamide] belongs 200 to 2000 nM.
With `CCn1cc(Cl)c2cc(C(=O)NCCc3cc(F)c(N4CC5CCC(C4)N5)cc3F)nnc21` [Example 4-4, N-(4-(3,8-diazabicyclo[3.2.1]octan-3-yl)-2,5-difluorophenethyl)-5-chloro-7-ethyl-7H-pyrrolo[2,3-c]pyridazine-3-carboxamide] the figure was 50 to 200 nM; with `CCn1ccc2cc(C(=O)NC[C@@H](C)c3cc(F)c(N4CC5CCC(C4)N5)cc3F)cnc21` (single isomer, unassigned) [Example 2-4], 200 to 2000 nM.
With `CCn1ccc2cc(C(=O)NC[C@@H](C)c3cc(F)c(N4CC5CCC(C4)N5)cc3F)nnc21` (single isomer, unassigned) [Example 4-3] the figure was 200 to 2000 nM; with `O=C(NCCc1ccc(N2CCNCC2)cc1)c1cnc2c(ccn2CC(F)(F)F)c1` [Example 1-8], 50 to 200 nM.
With `CCn1ccc2cc(C(=O)NCCc3cc(F)c(N4CC5CCC(C4)N5)cc3F)nnc21` [Example 4-1, N-[2-(4-[3,8-diazabicyclo[3.2.1]octan-3-yl]-2,5-difluorophenyl)ethyl]-7-ethyl-7H-pyrrolo[2,3-c]pyridazine-3-carboxamide], the IC50 was in the range of 200 to 2000 nM.
With `Cn1ccc2cc(C(=O)NCCc3ccc(N4CCNCC4)cc3)cnc21` [Example 1-3, 1-methyl-N-(4-(piperazin-1-yl)phenethyl)-1H-pyrrolo[2,3-b]pyridine-5-carboxamide] the figure was 200 to 2000 nM.
With `CCn1ccc2cc(C(=O)NC[C@H](C)c3cc(F)c(N4CC5CCC(C4)N5)cc3F)nnc21` (single isomer, unassigned) [Example 4-2] the figure was 200 to 2000 nM; with `CCn1ccc2cc(C(=O)NC[C@H](C)c3cc(F)c(N4CC5CCC(C4)N5)cc3F)cnc21` (single isomer, unassigned) [Example 2-3], 200 to 2000 nM.

These data come from US12252490B2, “Inhibiting deubiquitinase USP25 and USP28” (Valo Health, Inc., priority 2018, dated 2025).
